Test results: ChEMBL document CHEMBL2163248, “Classification of inhibitors of hepatic organic anion transporting polypeptides (OATPs): influence of protein expression on drug-drug interactions” (J Med Chem, 2012)

What was measured:
[1] = target: T1, Solute carrier organic anion transporter family member 1B1 (Homo sapiens, UniProt Q9Y6L6); test: Inhibition of human liver OATP1B1 expressed in HEK293 Flp-In cells assessed as reduction in E17-betaG uptake at 20 uM by scintillation counting; conditions: hek293, 20 µM
T1 sequence (Q9Y6L6 whole entry): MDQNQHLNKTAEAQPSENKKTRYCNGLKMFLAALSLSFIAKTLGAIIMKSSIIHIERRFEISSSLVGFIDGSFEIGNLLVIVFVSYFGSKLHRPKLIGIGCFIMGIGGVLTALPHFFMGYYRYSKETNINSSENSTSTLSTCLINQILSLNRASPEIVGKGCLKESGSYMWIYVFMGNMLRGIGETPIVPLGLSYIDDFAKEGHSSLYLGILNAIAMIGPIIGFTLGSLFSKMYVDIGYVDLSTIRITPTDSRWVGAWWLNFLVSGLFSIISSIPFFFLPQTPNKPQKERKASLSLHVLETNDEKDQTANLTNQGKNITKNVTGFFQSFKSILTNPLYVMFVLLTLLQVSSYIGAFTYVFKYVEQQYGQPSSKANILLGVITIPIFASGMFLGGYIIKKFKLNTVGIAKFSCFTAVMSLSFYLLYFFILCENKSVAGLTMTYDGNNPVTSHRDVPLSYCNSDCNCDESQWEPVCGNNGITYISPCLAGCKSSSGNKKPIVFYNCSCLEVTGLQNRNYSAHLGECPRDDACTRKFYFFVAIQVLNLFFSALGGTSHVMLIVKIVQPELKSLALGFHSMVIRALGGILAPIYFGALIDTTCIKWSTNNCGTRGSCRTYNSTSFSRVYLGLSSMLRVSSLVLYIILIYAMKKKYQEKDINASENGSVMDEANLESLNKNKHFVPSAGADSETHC

[2] = target: T2, Solute carrier organic anion transporter family member 1B3 (Homo sapiens, UniProt Q9NPD5); test: Inhibition of human liver OATP1B3 expressed in HEK293 Flp-In cells assessed as reduction in [3H]E17-betaG uptake at 20 uM incubated for 5 mins by scintillation counting; conditions: hek293, 5 min
T2 sequence (Q9NPD5 whole entry): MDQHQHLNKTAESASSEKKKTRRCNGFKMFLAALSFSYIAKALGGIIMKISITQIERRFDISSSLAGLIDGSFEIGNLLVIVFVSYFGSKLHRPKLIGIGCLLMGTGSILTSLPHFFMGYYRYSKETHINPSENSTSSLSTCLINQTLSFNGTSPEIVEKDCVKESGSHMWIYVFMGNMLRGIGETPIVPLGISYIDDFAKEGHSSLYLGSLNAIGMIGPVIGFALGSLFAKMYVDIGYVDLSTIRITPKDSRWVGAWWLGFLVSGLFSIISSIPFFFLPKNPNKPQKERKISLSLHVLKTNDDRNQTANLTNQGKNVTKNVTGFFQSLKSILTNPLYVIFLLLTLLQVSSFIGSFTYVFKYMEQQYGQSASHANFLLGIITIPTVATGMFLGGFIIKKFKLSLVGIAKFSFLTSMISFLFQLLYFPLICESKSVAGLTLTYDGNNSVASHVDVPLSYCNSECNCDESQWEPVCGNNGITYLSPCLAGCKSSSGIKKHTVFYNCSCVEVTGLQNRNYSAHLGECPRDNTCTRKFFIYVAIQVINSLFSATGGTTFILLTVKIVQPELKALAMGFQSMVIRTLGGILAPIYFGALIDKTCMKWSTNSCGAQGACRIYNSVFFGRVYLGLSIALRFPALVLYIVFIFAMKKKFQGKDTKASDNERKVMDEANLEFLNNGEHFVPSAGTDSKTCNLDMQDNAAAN

[3] = target: T3, Solute carrier organic anion transporter family member 2B1 (Homo sapiens, UniProt O94956); test: Inhibition of human liver OATP2B1 expressed in HEK293 Flp-In cells assessed as reduction in [3H]E3S uptake at 20 uM incubated for 5 mins by scintillation counting; conditions: hek293, 5 min
T3 sequence (O94956 whole entry): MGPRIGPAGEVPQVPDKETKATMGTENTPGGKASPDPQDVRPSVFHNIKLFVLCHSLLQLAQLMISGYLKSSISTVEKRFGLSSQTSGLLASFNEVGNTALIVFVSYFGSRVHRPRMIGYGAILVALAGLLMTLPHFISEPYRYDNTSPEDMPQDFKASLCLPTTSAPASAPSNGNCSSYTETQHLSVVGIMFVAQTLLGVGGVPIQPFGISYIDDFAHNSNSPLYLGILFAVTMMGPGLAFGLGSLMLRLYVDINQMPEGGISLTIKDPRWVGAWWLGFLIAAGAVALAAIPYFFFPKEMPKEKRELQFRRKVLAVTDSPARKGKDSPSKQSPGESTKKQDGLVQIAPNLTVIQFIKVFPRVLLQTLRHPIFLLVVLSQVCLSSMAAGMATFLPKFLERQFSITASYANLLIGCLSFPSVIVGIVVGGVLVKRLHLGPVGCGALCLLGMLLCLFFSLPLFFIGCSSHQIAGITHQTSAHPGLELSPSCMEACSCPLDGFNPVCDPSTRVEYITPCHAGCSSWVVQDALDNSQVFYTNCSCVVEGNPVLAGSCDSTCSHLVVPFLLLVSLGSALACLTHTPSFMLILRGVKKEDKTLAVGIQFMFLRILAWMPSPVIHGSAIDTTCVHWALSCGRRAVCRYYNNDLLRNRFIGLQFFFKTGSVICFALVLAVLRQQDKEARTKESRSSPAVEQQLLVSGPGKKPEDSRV

Work on `COC(=O)N[C@H](C(=O)N[C@@H](Cc1ccccc1)[C@@H](O)CN(Cc1ccc(-c2ccccn2)cc1)NC(=O)[C@@H](NC(=O)OC)C(C)(C)C)C(C)(C)C` [ATAZANAVIR] yielded an INH [1] of 95%, an INH [2] of 92.6% and an INH [3] of 90.1%.

With `CNCC[C@@H](Oc1ccccc1C)c1ccccc1` [ATOMOXETINE] the INH [1] was -7.5%, the INH [2] was 31.6% and the INH [3] was 16.3%.

`O=C(O)[C@H]1O[C@@H](Oc2cc3oc(-c4ccccc4)cc(=O)c3c(O)c2O)[C@H](O)[C@@H](O)[C@@H]1O` [BAICALIN] gave an INH [1] of 27.6%, an INH [2] of 20.9% and an INH [3] of 59.1%.

`CCc1oc2ccccc2c1C(=O)c1cc(Br)c(O)c(Br)c1` [BENZBROMARONE] was tested, and the INH [1] was 86.6%, the INH [2] was 19.5% and the INH [3] was 76.3%.

Compound `COc1ccc2cc3[n+](cc2c1OC)CCc1cc2c(cc1-3)OCO2` [BERBERINE] has an INH [1] of 32%, an INH [2] of 19.4% and an INH [3] of 18.5%.

`CCCC1O[C@@H]2C[C@H]3[C@@H]4CCC5=CC(=O)C=C[C@]5(C)[C@H]4[C@@H](O)C[C@]3(C)[C@]2(C(=O)CO)O1` (stereo partly drawn) [BUDESONIDE] was tested, and the INH [1] was 73.2%, the INH [2] was 79% and the INH [3] was 30.3%.

Compound `CCc1cccc2cc(C(O)CNC(C)(C)C)oc12` (stereo not drawn) [BUFURALOL] has an INH [1] of -13.9%, an INH [2] of 23.8% and an INH [3] of -7%.

`CC(NC(C)(C)C)C(=O)c1cccc(Cl)c1` (stereo not drawn) [BUPROPION] showed an INH [1] of 8.5%, an INH [2] of 7.2% and an INH [3] of 17%.

In the case of `O=C1CC2(CCCC2)CC(=O)N1CCCCN1CCN(c2ncccn2)CC1` [BUSPIRONE], the INH [1] is reported as 33.3%, the INH [2] is reported as -5.6% and the INH [3] is reported as -13.9%.

`Cn1c(=O)c2c(ncn2C)n(C)c1=O` [CAFFEINE] gave an INH [1] of -1.8%, an INH [2] of 22.1% and an INH [3] of 3.2%.

`C[C@H](CS)C(=O)N1CCC[C@H]1C(=O)O` [CAPTOPRIL] was tested, and the INH [1] was 18.6%, the INH [2] was 4% and the INH [3] was 39.1%.

In the case of `NC(=O)N1c2ccccc2C=Cc2ccccc21` [CARBAMAZEPINE], the INH [1] is reported as 13.3%, the INH [2] is reported as 23.2% and the INH [3] is reported as 17.3%.

With `C[N+](C)(C)CC(O)CC(=O)[O-]` (stereo not drawn) [CARNITINE] the INH [1] was 36.6%, the INH [2] was -9.3% and the INH [3] was 15.5%.

In the case of `CC1=C(C(=O)O)N2C(=O)[C@@H](NC(=O)[C@H](N)c3ccc(O)cc3)[C@H]2SC1` [CEFADROXIL], the INH [1] is reported as 9.4%, the INH [2] is reported as 21% and the INH [3] is reported as 3.5%.

`Cn1nnnc1SCC1=C(C(=O)O)N2C(=O)[C@@H](NC(=O)[C@H](O)c3ccccc3)[C@H]2SC1` [CEFAMANDOLE] showed an INH [1] of 30.2%, an INH [2] of 16.5% and an INH [3] of 2.7%.

`COCc1c(C(C)C)nc(C(C)C)c(/C=C/[C@@H](O)C[C@@H](O)CC(=O)O)c1-c1ccc(F)cc1` [CERIVASTATIN] was tested, and the INH [1] was 73.6%, the INH [2] was 68.1% and the INH [3] was 40.1%.

Work on `CN(C)CCCN1c2ccccc2Sc2ccc(Cl)cc21` [CHLORPROMAZINE] yielded an INH [1] of 27.1%, an INH [2] of 22.8% and an INH [3] of 4.3%.

In the case of `CN(C)CC/C=C1/c2ccccc2Sc2ccc(Cl)cc21` [CHLORPROTHIXENE], the INH [1] is reported as 24%, the INH [2] is reported as -6.9% and the INH [3] is reported as 26.6%.

`C[C@H](CCC(=O)O)[C@H]1CC[C@H]2[C@@H]3[C@H](O)C[C@@H]4C[C@H](O)CC[C@]4(C)[C@H]3C[C@H](O)[C@]12C` [CHOLIC ACID] was tested, and the INH [1] was 41.6%, the INH [2] was 40.8% and the INH [3] was 20.2%.

`CN/C(=N/CCSCc1nc[nH]c1C)NC#N` [CIMETIDINE] was tested, and the INH [1] was 40.3%, the INH [2] was 24.8% and the INH [3] was -6.2%.

In the case of `Clc1ccccc1C(c1ccccc1)(c1ccccc1)n1ccnc1` [CLOTRIMAZOLE], the INH [1] is reported as 32.3%, the INH [2] is reported as -120.4% and the INH [3] is reported as -37.1%.

`COc1cc2c(c(OC)c1OC)-c1ccc(OC)c(=O)cc1[C@@H](NC(C)=O)CC2` [COLCHICINE] was tested, and the INH [1] was 45.2%, the INH [2] was -3.9% and the INH [3] was 24.4%.

`O=c1ccc2ccccc2o1` [COUMARIN] was tested, and the INH [1] was 7.6%, the INH [2] was 38.2% and the INH [3] was 9.3%.

`O=c1oc2cc(O)ccc2c2oc3cc(O)ccc3c12` [COUMESTROL] gave an INH [1] of 73.2%, an INH [2] of -21.1% and an INH [3] of -41.5%.

`O=c1c(-c2ccc(O)cc2)coc2cc(O)ccc12` [DAIDZEIN] gave an INH [1] of 35%, an INH [2] of 0.7% and an INH [3] of 32%.

With `C[C@@H]1C[C@H]2[C@@H]3CCC4=CC(=O)C=C[C@]4(C)[C@@]3(F)[C@@H](O)C[C@]2(C)[C@@]1(O)C(=O)CO` [DEXAMETHASONE] the INH [1] was 10.7%, the INH [2] was 34.2% and the INH [3] was -12.5%.

Compound `COc1ccc2c(c1)[C@]13CCCC[C@@H]1[C@H](C2)N(C)CC3` [DEXTROMETHORPHAN] has an INH [1] of 36.3%, an INH [2] of -21.9% and an INH [3] of 15.9%.

Work on `CC/C(=C(/CC)c1ccc(O)cc1)c1ccc(O)cc1` [DIETHYLSTILBESTROL] yielded an INH [1] of 62.1%, an INH [2] of 31.1% and an INH [3] of 68.1%.

`COc1ccc([C@@H]2Sc3ccccc3N(CCN(C)C)C(=O)[C@@H]2OC(C)=O)cc1` [DILTIAZEM] gave an INH [1] of 3.2%, an INH [2] of 4.1% and an INH [3] of -9.1%.

Work on `CC(C)N(CCC(C(N)=O)(c1ccccc1)c1ccccn1)C(C)C` (stereo not drawn) [DISOPYRAMIDE] yielded an INH [1] of 47.5%, an INH [2] of 8.6% and an INH [3] of 18.5%.

`COc1cc2nc(N3CCN(C(=O)C4COc5ccccc5O4)CC3)nc(N)c2cc1OC` (stereo not drawn) [DOXAZOSIN] was tested, and the INH [1] was 28.8%, the INH [2] was -17.3% and the INH [3] was 45.8%.

`O=C1Nc2ccc(Cl)cc2[C@@](C#CC2CC2)(C(F)(F)F)O1` [EFAVIRENZ] showed an INH [1] of 40.9%, an INH [2] of 18.2% and an INH [3] of 43.2%.

`CC[C@H]1OC(=O)[C@H](C)[C@@H](O[C@H]2C[C@@](C)(OC)[C@@H](O)[C@H](C)O2)[C@H](C)[C@@H](O[C@@H]2O[C@H](C)C[C@H](N(C)C)[C@H]2O)[C@](C)(O)C[C@@H](C)C(=O)[C@H](C)[C@@H](O)[C@]1(C)O` [ERYTHROMYCIN] showed an INH [1] of 58.8%, an INH [2] of 45.8% and an INH [3] of -19%.

`C[C@]12CC[C@@H]3c4ccc(O)cc4CC[C@H]3[C@@H]1CC[C@@H]2O` [ESTRADIOL] showed an INH [1] of 102.8%, an INH [2] of 39.3% and an INH [3] of 47.4%.

With `C[C@]12CC[C@@H]3c4ccc(OS(=O)(=O)O)cc4CC[C@H]3[C@@H]1CCC2=O` [ESTRONE SULFURIC ACID] the INH [1] was 98.1%, the INH [2] was 10.1% and the INH [3] was 20.8%.

`O=C1[C@H](CC[C@H](O)c2ccc(F)cc2)[C@@H](c2ccc(O)cc2)N1c1ccc(F)cc1` [EZETIMIBE] showed an INH [1] of 55.5%, an INH [2] of 1.5% and an INH [3] of -8.9%.
